Experimental data taken from ChEMBL document CHEMBL1127122, “Neurotensin receptor binding and antinociceptive activity for lipophilic N-amido neurotensin(913) analogs” (Bioorg Med Chem Lett, 1993).
Non-standard residues stand in square brackets, D forms with d. Residues, ends and D or L forms follow the SMILES beside them. *: point of attachment. X1 = O=C(C(F)(F)C(F)(F)C(F)(F)C(F)(F)C(F)(F)C(F)(F)C(F)(F)F)*; Adamantane1carbonyl = O=C(C12CC3CC(CC(C3)C1)C2)*; Benzoyl(4-Ph) = O=C(c1ccc(-c2ccccc2)cc1)*; Benzoyl(4-tBu) = CC(C)(C)c1ccc(C(=O)*)cc1; Butanoyl(3,3-Me2) = CC(C)(C)CC(=O)*; Stearoyl = CCCCCCCCCCCCCCCCCC(=O)*; X3 = O=C1NC2CSC(CCCCC(=O)*)C2N1; Nicotinoyl = O=C(c1cccnc1)*; Orn = NCCC[C@H](N)C(=O)O; X2 = O=C(CC1CCC2CCCC21)*; X4 = O=C(CC1CC2CCC1C2)*; Boc = CC(C)(C)OC(=O)*; Piv = CC(C)(C)C(=O)*; Bz = O=C(c1ccccc1)*

Tests used:
[1] = target: Neurotensin receptor type 1 (Rattus norvegicus, UniProt P20789); assay: Binding affinity against rat neurotensin receptor.
Chain of Neurotensin receptor type 1 (P20789 whole entry): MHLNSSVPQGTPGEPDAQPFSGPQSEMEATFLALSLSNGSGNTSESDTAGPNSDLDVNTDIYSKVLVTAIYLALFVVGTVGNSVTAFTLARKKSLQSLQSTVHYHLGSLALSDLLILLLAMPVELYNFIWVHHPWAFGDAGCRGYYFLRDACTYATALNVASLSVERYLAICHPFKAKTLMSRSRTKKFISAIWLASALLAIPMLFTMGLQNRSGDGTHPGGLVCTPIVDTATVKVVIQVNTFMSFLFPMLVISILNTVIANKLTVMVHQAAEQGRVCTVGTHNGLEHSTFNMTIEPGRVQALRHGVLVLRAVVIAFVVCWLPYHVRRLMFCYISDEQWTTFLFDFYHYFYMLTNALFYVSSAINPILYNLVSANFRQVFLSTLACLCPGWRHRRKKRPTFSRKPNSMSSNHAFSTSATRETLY

Mus musculus [2] = assay: Analgesic activity of i.v. administered compound in fasted male mice at 10 min. interval was determined using phenylquinone writhing assay; assay type: functional; details: iv
Mus musculus [3] = assay: Analgesic activity in fasted male mice in phenylquinone writhing assay 10 min after i.c.v. administration.; assay type: functional
Mus musculus [4] = assay: Analgesic activity in fasted male mice in phenylquinone writhing assay 40 min after i.c.v. administration.; assay type: functional
Mus musculus [5] = assay: Analgesic activity in fasted male mice in phenylquinone writhing assay 5 min after i.c.v. administration.; assay type: functional
Mus musculus [6] = assay: Analgesic activity of i.v. administered compound in fasted male mice at 5 min. interval was determined using phenylquinone writhing assay; assay type: functional; details: iv
Mu-type opioid receptor = Mu-type opioid receptor (Cavia porcellus, UniProt P97266); assay: Compound was evaluated for binding affinity against mu receptor by opioid receptor binding assay: Inactive
Chain of Mu-type opioid receptor (P97266 whole entry): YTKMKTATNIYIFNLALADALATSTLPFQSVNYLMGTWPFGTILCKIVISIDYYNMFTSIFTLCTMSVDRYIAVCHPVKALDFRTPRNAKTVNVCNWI

[7] = target: Kappa-type opioid receptor (Cavia porcellus, UniProt P41144); assay: Compound was evaluated for binding affinity against Opioid receptor kappa 1 by opioid receptor binding assay: Inactive
Chain of Kappa-type opioid receptor (P41144 whole entry): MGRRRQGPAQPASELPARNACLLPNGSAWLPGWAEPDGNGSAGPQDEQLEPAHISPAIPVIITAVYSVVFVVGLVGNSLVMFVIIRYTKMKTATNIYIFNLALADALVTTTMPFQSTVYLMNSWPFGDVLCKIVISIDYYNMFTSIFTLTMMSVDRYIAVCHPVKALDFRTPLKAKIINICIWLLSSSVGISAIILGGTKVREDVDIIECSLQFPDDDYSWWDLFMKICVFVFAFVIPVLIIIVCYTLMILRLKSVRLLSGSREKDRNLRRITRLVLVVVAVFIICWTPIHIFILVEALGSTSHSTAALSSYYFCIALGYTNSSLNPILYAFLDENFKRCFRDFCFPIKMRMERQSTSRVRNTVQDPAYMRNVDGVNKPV

Ki [1] [nM]	Molecule	ED50 (Mus musculus [2]) [mg/kg]	ED50 (Mus musculus [3]) [ug mouse-1]	ED50 (Mus musculus [4]) [ug mouse-1]	ED50 (Mus musculus [5]) [ug mouse-1]	ED50 (Mus musculus [6]) [mg/kg]	Ki (Mu-type opioid receptor) [nM]	Ki [7] [nM]
190	CC[C@H](C)[C@H](NC(=O)[C@H](Cc1ccc(O)cc1)NC(=O)[C@@H]1CCCN1C(=O)[C@H](CCCCN)NC(=O)C(C)(C)C)C(=O)N[C@@H](CC(C)C)C(=O)O (Piv-KPYIL-OH) [listing 1 of 2 here]	–	–	–	–	–	–	–
–	CC[C@H](C)[C@H](NC(=O)[C@H](Cc1ccc(O)cc1)NC(=O)[C@@H]1CCCN1C(=O)[C@H](CCCN)NC(=O)C12CC3CC(CC(C3)C1)C2)C(=O)N[C@@H](CC(C)C)C(=O)O (Adamantane1carbonyl-[Orn]PYIL-OH) [listing 1 of 2 here]	11	0.45	3.6	0.13	4.8	–	–
1000	CC[C@H](C)[C@H](NC(=O)[C@H](Cc1ccc(O)cc1)NC(=O)[C@@H]1CCCN1C(=O)[C@H](CCCCN)NC(=O)CC1CC2CCC1C2)C(=O)N[C@@H](CC(C)C)C(=O)O (stereo not given in full) (X4-KPYIL-OH)	19	0.29	2.7	0.018	24	–	–
–	CC[C@H](C)[C@H](NC(=O)[C@H](Cc1ccc(O)cc1)NC(=O)[C@@H]1CCCN1C(=O)[C@H](CCCCN)NC(=O)C12CC3CC(CC(C3)C1)C2)C(=O)N[C@@H](CC(C)C)C(=O)O (Adamantane1carbonyl-KPYIL-OH)	2.8	0.22	0.71	0.15	2.2	> 10000	> 10000
680	CC[C@H](C)[C@H](NC(=O)[C@H](Cc1ccc(O)cc1)NC(=O)[C@@H]1CCCN1C(=O)[C@H](CCCCN)NC(=O)CC(C)(C)C)C(=O)N[C@@H](CC(C)C)C(=O)O ({Butanoyl(3,3-Me2)}-KPYIL-OH) [listing 1 of 2 here]	–	–	–	–	–	–	–
290	CC[C@H](C)[C@H](NC(=O)[C@H](Cc1ccc(O)cc1)NC(=O)[C@@H]1CCCN1C(=O)[C@H](CCCCN)NC(=O)CCCCC1SCC2NC(=O)NC21)C(=O)N[C@@H](CC(C)C)C(=O)O (stereo not given in full) (X3-KPYIL-OH) [listing 1 of 2 here]	–	–	–	–	–	–	–
–	Ac-KPYIL-OH [listing 1 of 2 here]	–	<50	<50	<50	–	–	–
> 10000	CCCCCCCCCCCCCCCCCC(=O)N[C@@H](CCCCN)C(=O)N1CCC[C@H]1C(=O)N[C@@H](Cc1ccc(O)cc1)C(=O)N[C@H](C(=O)N[C@@H](CC(C)C)C(=O)O)[C@@H](C)CC (Stearoyl-KPYIL-OH) [listing 1 of 2 here]	–	–	–	–	–	–	–
–	CC[C@H](C)[C@H](NC(=O)[C@H](Cc1ccc(O)cc1)NC(=O)[C@@H]1CCCN1C(=O)[C@H](CCCCN)NC(=O)CC(C)(C)C)C(=O)N[C@@H](CC(C)C)C(=O)O ({Butanoyl(3,3-Me2)}-KPYIL-OH) [listing 2 of 2 here]	4.9	0.1	1.2	0.095	6.2	–	–
–	CC[C@H](C)[C@H](NC(=O)[C@H](Cc1ccc(O)cc1)NC(=O)[C@@H]1CCCN1C(=O)[C@H](CCCCN)NC(=O)CCCCC1SCC2NC(=O)NC21)C(=O)N[C@@H](CC(C)C)C(=O)O (stereo not given in full) (X3-KPYIL-OH) [listing 2 of 2 here]	≥ 81	2	8.3	0.86	> 81	–	–
–	CC[C@H](C)[C@H](NC(=O)[C@H](Cc1ccc(O)cc1)NC(=O)[C@@H]1CCCN1C(=O)[C@H](CCCCN)NC(=O)OC(C)(C)C)C(=O)N[C@@H](CC(C)C)C(=O)O (Boc-KPYIL-OH)	6.5	0.11	0.2	0.02	3.1	–	–
–	CC[C@H](C)[C@H](NC(=O)[C@H](Cc1ccc(O)cc1)NC(=O)[C@@H]1CCCN1C(=O)[C@@H](N)CCCN)C(=O)N[C@@H](CC(C)C)C(=O)O (H-[Orn]PYIL-OH) [listing 1 of 2 here]	–	20	67	23	–	–	–
520	CC[C@H](C)[C@H](NC(=O)[C@H](Cc1ccc(O)cc1)NC(=O)[C@@H]1CCCN1C(=O)[C@@H](N)CCCN)C(=O)N[C@@H](CC(C)C)C(=O)O (H-[Orn]PYIL-OH) [listing 2 of 2 here]	–	–	–	–	–	–	–
2100	CC[C@H](C)[C@H](NC(=O)[C@H](Cc1ccc(O)cc1)NC(=O)[C@@H]1CCCN1C(=O)[C@H](CCCCN)NC(=O)C(F)(F)C(F)(F)C(F)(F)C(F)(F)C(F)(F)C(F)(F)C(F)(F)F)C(=O)N[C@@H](CC(C)C)C(=O)O (X1-KPYIL-OH) [listing 1 of 2 here]	–	–	–	–	–	–	–
–	CCCCCCCCCCCCCCCCCC(=O)N[C@@H](CCCCN)C(=O)N1CCC[C@H]1C(=O)N[C@@H](Cc1ccc(O)cc1)C(=O)N[C@H](C(=O)N[C@@H](CC(C)C)C(=O)O)[C@@H](C)CC (Stearoyl-KPYIL-OH) [listing 2 of 2 here]	–	>50	>50	38	–	–	–
100	CC[C@H](C)[C@H](NC(=O)[C@H](Cc1ccc(O)cc1)NC(=O)[C@@H]1CCCN1C(=O)[C@H](CCCCN)NC(=O)c1ccccc1)C(=O)N[C@@H](CC(C)C)C(=O)O (Bz-KPYIL-OH) [listing 1 of 2 here]	–	–	–	–	–	–	–
–	CC[C@H](C)[C@H](NC(=O)[C@H](Cc1ccc(O)cc1)NC(=O)[C@@H]1CCCN1C(=O)[C@H](CCCCN)NC(=O)C(C)(C)C)C(=O)N[C@@H](CC(C)C)C(=O)O (Piv-KPYIL-OH) [listing 2 of 2 here]	15	0.29	0.7	0.28	15	–	–
–	H-KPYIL-OH	> 81	10	26	8	> 81	–	–
220	CC[C@H](C)[C@H](NC(=O)[C@H](Cc1ccc(O)cc1)NC(=O)[C@@H]1CCCN1C(=O)[C@H](CCCCN)NC(=O)c1ccc(C(C)(C)C)cc1)C(=O)N[C@@H](CC(C)C)C(=O)O ({Benzoyl(4-tBu)}-KPYIL-OH) [listing 1 of 2 here]	–	–	–	–	–	–	–
–	CC[C@H](C)[C@H](NC(=O)[C@H](Cc1ccc(O)cc1)NC(=O)[C@@H]1CCCN1C(=O)[C@H](CCCCN)NC(=O)c1ccc(-c2ccccc2)cc1)C(=O)N[C@@H](CC(C)C)C(=O)O ({Benzoyl(4-Ph)}-KPYIL-OH) [listing 1 of 2 here]	13	2.8	50	1.7	< 27	–	–
540	CC[C@H](C)[C@H](NC(=O)[C@H](Cc1ccc(O)cc1)NC(=O)[C@@H]1CCCN1C(=O)[C@H](CCCCN)NC(=O)CC1CCC2CCCC21)C(=O)N[C@@H](CC(C)C)C(=O)O (stereo not given in full) (X2-KPYIL-OH)	15	0.41	2.5	0.1	12	–	–
–	CC[C@H](C)[C@H](NC(=O)[C@H](Cc1ccc(O)cc1)NC(=O)[C@@H]1CCCN1C(=O)[C@H](CCCCN)NC(=O)c1ccccc1)C(=O)N[C@@H](CC(C)C)C(=O)O (Bz-KPYIL-OH) [listing 2 of 2 here]	5.5	0.16	1.5	0.0088	6.6	–	–
880	CC[C@H](C)[C@H](NC(=O)[C@H](Cc1ccc(O)cc1)NC(=O)[C@@H]1CCCN1C(=O)[C@H](CCCCN)NC(=O)c1ccc(-c2ccccc2)cc1)C(=O)N[C@@H](CC(C)C)C(=O)O ({Benzoyl(4-Ph)}-KPYIL-OH) [listing 2 of 2 here]	–	–	–	–	–	–	–
–	CC[C@H](C)[C@H](NC(=O)[C@H](Cc1ccc(O)cc1)NC(=O)[C@@H]1CCCN1C(=O)[C@H](CCCCN)NC(=O)c1ccc(C(C)(C)C)cc1)C(=O)N[C@@H](CC(C)C)C(=O)O ({Benzoyl(4-tBu)}-KPYIL-OH) [listing 2 of 2 here]	6.6	0.088	0.32	0.075	12	–	–
180	CC[C@H](C)[C@H](NC(=O)[C@H](Cc1ccc(O)cc1)NC(=O)[C@@H]1CCCN1C(=O)[C@H](CCCN)NC(=O)C12CC3CC(CC(C3)C1)C2)C(=O)N[C@@H](CC(C)C)C(=O)O (Adamantane1carbonyl-[Orn]PYIL-OH) [listing 2 of 2 here]	–	–	–	–	–	–	–
2100	Ac-KPYIL-OH [listing 2 of 2 here]	–	–	–	–	–	–	–
–	CC[C@H](C)[C@H](NC(=O)[C@H](Cc1ccc(O)cc1)NC(=O)[C@@H]1CCCN1C(=O)[C@H](CCCCN)NC(=O)C(F)(F)C(F)(F)C(F)(F)C(F)(F)C(F)(F)C(F)(F)C(F)(F)F)C(=O)N[C@@H](CC(C)C)C(=O)O (X1-KPYIL-OH) [listing 2 of 2 here]	17	3.7	4.4	2.2	32	–	–
420	CC[C@H](C)[C@H](NC(=O)[C@H](Cc1ccc(O)cc1)NC(=O)[C@@H]1CCCN1C(=O)[C@H](CCCCN)NC(=O)c1cccnc1)C(=O)N[C@@H](CC(C)C)C(=O)O (Nicotinoyl-KPYIL-OH) [listing 1 of 2 here]	–	–	–	–	–	–	–
–	CC[C@H](C)[C@H](NC(=O)[C@H](Cc1ccc(O)cc1)NC(=O)[C@@H]1CCCN1C(=O)[C@H](CCCN)NC(=O)OC(C)(C)C)C(=O)N[C@@H](CC(C)C)C(=O)O (Boc-[Orn]PYIL-OH)	2	0.044	0.69	0.00084	0.85	–	–
–	CC[C@H](C)[C@H](NC(=O)[C@H](Cc1ccc(O)cc1)NC(=O)[C@@H]1CCCN1C(=O)[C@H](CCCCN)NC(=O)c1cccnc1)C(=O)N[C@@H](CC(C)C)C(=O)O (Nicotinoyl-KPYIL-OH) [listing 2 of 2 here]	3	0.016	0.3	0.0016	3.6	–	–
